From patent publication US20250163038A1, “CBL-B MODULATORS AND USES THEREOF” (Nimbus Clio, Inc., priority 2021, published 2025)
Read-outs that look alike come from different tables or passages of the source.

Assays:
[1] = biological target: Recombinant human Cbl-b (aa 36-427) (Homo sapiens, UniProt Q13191); experiment: Cbl-b Biochemical Assay (TR-FRET); details: read-out: TR-FRET hCbl-b IC50
[2] = system: Jurkat (clone E6-1) cells with NFAT luciferase reporter; experiment: Jurkat reporter assay (NFAT Luciferase); assay type: cell-based; details: Homo sapiens
[3] = biological target: T1, Recombinant human c-Cbl (aa 47-435) (Homo sapiens, UniProt P22681); experiment: c-Cbl Biochemical Assay (TR-FRET); details: hc-Cbl Biochemical Assay (TR-FRET); read-out: TR-FRET hcCbl IC50
T1 sequence (P22681 47-435): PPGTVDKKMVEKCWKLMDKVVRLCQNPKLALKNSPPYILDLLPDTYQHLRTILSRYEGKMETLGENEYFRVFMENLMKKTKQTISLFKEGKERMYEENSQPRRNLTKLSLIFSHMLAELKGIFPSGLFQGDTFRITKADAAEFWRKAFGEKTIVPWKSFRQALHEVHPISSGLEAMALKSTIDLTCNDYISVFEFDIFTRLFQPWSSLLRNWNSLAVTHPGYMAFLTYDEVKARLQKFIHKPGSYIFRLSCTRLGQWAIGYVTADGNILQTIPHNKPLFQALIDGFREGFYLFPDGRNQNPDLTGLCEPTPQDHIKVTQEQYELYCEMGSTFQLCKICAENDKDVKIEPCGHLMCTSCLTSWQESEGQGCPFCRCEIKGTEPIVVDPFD

[4] = Jurkat NFAT luciferase reporter cells, anti-CD3 stimulation, 6 hr, read-out: Jurkat NFAT EC50

Chain of Recombinant human Cbl-b (aa 36-427) (Q13191 36-427): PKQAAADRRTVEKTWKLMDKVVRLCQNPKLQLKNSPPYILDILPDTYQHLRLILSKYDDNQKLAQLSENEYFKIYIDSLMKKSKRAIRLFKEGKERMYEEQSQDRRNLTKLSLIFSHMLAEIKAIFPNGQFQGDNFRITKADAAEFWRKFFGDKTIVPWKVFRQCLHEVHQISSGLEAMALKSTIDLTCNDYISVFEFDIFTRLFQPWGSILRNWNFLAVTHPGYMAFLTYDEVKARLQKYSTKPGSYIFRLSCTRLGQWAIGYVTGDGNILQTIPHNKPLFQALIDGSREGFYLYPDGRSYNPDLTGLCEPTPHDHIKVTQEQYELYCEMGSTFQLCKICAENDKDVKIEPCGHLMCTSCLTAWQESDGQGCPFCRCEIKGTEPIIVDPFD

Structure (SMILES)	IC50 [1] [nM]	EC50 [2, 4] [µM]	IC50 [3] [nM]	EC50 ([2]; Jurkat, 6 h, read-out: Jurkat NFAT EC50 (μM)) [µM]
Cn1cnnc1-c1cc(F)ccc1-c1cccc(-c2nc3cc(CNCCF)cc(C(F)(F)F)c3o2)c1 [FD-2, 2-fluoro-N-((2-(4′-fluoro-2′-(4-methyl-4H-1,2,4-triazol-3-yl)-[1,1′-biphenyl]-3-yl)-7-(trifluoromethyl)benzo[d]oxazol-5-yl)methyl)ethan-1-amine]	< 200	0.2 to 1	< 200	
Cn1cnnc1-c1cc(F)ccc1-c1cccc(-c2nc3cc(NCCC4CCCC4)cc(C(F)(F)F)c3o2)c1 [HM-3, N-(2-Cyclopentylethyl)-2-(4′-fluoro-2′-(4-methyl-4H-1,2,4-triazol-3-yl)-[1,1′-biphenyl]-3-yl)-7-(trifluoromethyl)benzo[d]oxazol-5-amine]	1000 to 10000	1 to 10	1000 to 10000	
Cn1cnnc1-c1cc(F)ccc1-c1cc(-c2nc3cc(CNCC(C)(C)O)ccc3o2)nc(C2CC2)c1 [AFD-1, 1-{[(2-{6-Cyclopropyl-4-[4-fluoro-2-(4-methyl-1,2,4-triazol-3-yl)phenyl]pyridin-2-yl}-1,3-benzoxazol-5-yl)methyl]amino}-2-methylpropan-2-ol]	< 200	< 0.2	< 200	
COc1cc(CN[C@@H]2CCC[C@@H]2O)cc2nc(-c3cccc(-c4ccc(F)cc4-c4nncn4C)c3)oc12 [DX-2, (1S,2R)-2-(((2-(4′-Fluoro-2′-(4-methyl-4H-1,2,4-triazol-3-yl)-[1,1′-biphenyl]-3-yl)-7-methoxybenzo[d]oxazol-5-yl)methyl)amino)cyclopentan-1-ol]	< 200	< 0.2	< 200	
COCCNCc1cc(C)c2oc(-c3cccc(-c4ccc(F)cc4-c4nncn4C)c3)nc2c1F [JC-1, N-((4-Fluoro-2-(4′-fluoro-2′-(4-methyl-4H-1,2,4-triazol-3-yl)-[1,1′-biphenyl]-3-yl)-7-methylbenzo[d]oxazol-5-yl)methyl)-2-methoxyethan-1-amine]	200 to 1000	1 to 10	1000 to 10000	
Cn1cnnc1-c1cc(Cl)ccc1-c1cccc(-c2nc3cc(CO)ccc3o2)c1 [ADK-1, {2-[4′-Chloro-2′-(4-methyl-1,2,4-triazol-3-yl)-[1,1′-biphenyl]-3-yl]-1,3-benzoxazol-5-yl}methanol]	1000 to 10000	10 to 50	1000 to 10000	
Cn1cnnc1-c1cc(F)ccc1-c1cccc(-c2nc3cc(CNC4CCCC4)cc(C(F)(F)F)c3o2)c1 [DS-2, N-((2-(4′-Fluoro-2′-(4-methyl-4H-1,2,4-triazol-3-yl)-[1,1′-biphenyl]-3-yl)-7-(trifluoromethyl)benzo[d]oxazol-5-yl)methyl)cyclopentanamine]	< 200	< 0.2	< 200	
C[C@@H]1CCCN(Cc2cc(C(F)(F)F)c3oc(-c4cc(-c5ccccc5-c5nncn5C)cc(C5CC5)n4)nc3c2)C1 [AAQ-2, 2-{6-Cyclopropyl-4-[2-(4-methyl-1,2,4-triazol-3-yl)phenyl]pyridin-2-yl}-5-{[(3R)-3-methylpiperidin-1-yl]methyl}-7-(trifluoromethyl)-1,3-benzoxazole]	200 to 1000	1 to 10	1000 to 10000	
Cn1cnnc1-c1cc(F)ccc1-c1cccc(-c2nc3cc(CNCC4(C)CCC4)cc(C(F)(F)F)c3o2)c1 [HK-2, 1-(2-(4′-Fluoro-2′-(4-methyl-4H-1,2,4-triazol-3-yl)-[1,1′-biphenyl]-3-yl)-7-(trifluoromethyl)benzo[d]oxazol-5-yl)-N-((1-methylcyclobutyl)methyl)methanamine]	< 200	< 0.2	< 200	
Cn1cnnc1-c1cc(F)ccc1-c1cccc(-c2nc3cc(CNCCC4CCCC4)cc(C(F)(F)F)c3o2)c1 [HN-1, 2-Cyclopentyl-N-((2-(4′-fluoro-2′-(4-methyl-4H-1,2,4-triazol-3-yl)-[1,1′-biphenyl]-3-yl)-7-(trifluoromethyl)benzo[d]oxazol-5-yl)methyl)ethan-1-amine]	< 200	0.2 to 1	< 200	
Cn1cnnc1-c1cc(F)ccc1-c1ccnc(-c2nc3cc(CN[C@@H]4CCC[C@@H]4O)cc(C(F)(F)F)c3o2)c1 [AEG-8, (1S,2R)-2-{[(2-{4-[4-Fluoro-2-(4-methyl-1,2,4-triazol-3-yl)phenyl]pyridin-2-yl}-7-(trifluoromethyl)-1,3-benzoxazol-5-yl)methyl]amino}cyclopentan-1-ol]	< 200	< 0.2	< 200	
COc1cc(CN[C@H]2C[C@H](O)C2)cc2nc(-c3cccc(-c4ccc(F)cc4-c4nncn4C)c3)oc12 [GY-1, (1R,3R)-3-(((2-(4′-Fluoro-2′-(4-methyl-4H-1,2,4-triazol-3-yl)-[1,1′-biphenyl]-3-yl)-7-methoxybenzo[d]oxazol-5-yl)methyl)amino)cyclobutan-1-ol]	200 to 1000	10 to 50	1000 to 10000	
Cn1cnnc1-c1cc(F)ccc1-c1cc(-c2nc3cc(CN)cc(F)c3o2)nc(C2CC2)c1 [AHM-3, 1-(2-{6-cyclopropyl-4-[4-fluoro-2-(4-methyl-1,2,4-triazol-3-yl)phenyl]pyridin-2-yl}-7-fluoro-1,3-benzoxazol-5-yl)methanamine]	< 200		200 to 1000	1 to 10
Cn1cnnc1-c1cc(F)ccc1-c1cccc(-c2nc3cc(CN[C@@H]4CC[C@@H]4O)cc(C(F)(F)F)c3o2)c1 [DU-2, (1S,2R)-2-(((2-(4′-Fluoro-2′-(4-methyl-4H-1,2,4-triazol-3-yl)-[1,1′-biphenyl]-3-yl)-7-(trifluoromethyl)benzo[d]oxazol-5-yl)methyl)amino)cyclobutan-1-ol]	< 200	< 0.2	< 200	

Continued, in another order:

IC50 [1] [nM]	EC50 [2, 4] [µM]	IC50 [3] [nM]	Structure (SMILES)	EC50 ([2]; Jurkat, 6 h, read-out: Jurkat NFAT EC50 (μM)) [µM]
< 200	1 to 10	1000 to 10000	Cn1cnnc1-c1cc(F)ccc1-c1cccc(-c2nc3cc(CN4CCC5(CC5)C4)cc(C(F)(F)F)c3o2)c1 [AAL-5, 5-((5-Azaspiro[2.4]heptan-5-yl)methyl)-2-(4′-fluoro-2′-(4-methyl-4H-1,2,4-triazol-3-yl)-[1,1′-biphenyl]-3-yl)-7-(trifluoromethyl) benzo[d]oxazole]	
< 200	0.2 to 1	< 200	COc1cc(CN[C@@H]2CCC[C@@H]2O)cc2nc(-c3cccc([C@]4(c5nncn5C)C[C@@H](C)C4)c3)oc12 [AEC-2]	
< 200	< 0.2	< 200	CN(Cc1cc(C(F)(F)F)c2oc(-c3cccc(-c4ccc(F)cc4-c4nncn4C)c3)nc2c1)[C@@H]1CCC[C@@H]1O [FW-3, (1S,2R)-2-(((2-(4′-Fluoro-2′-(4-methyl-4H-1,2,4-triazol-3-yl)-[1,1′-biphenyl]-3-yl)-7-(trifluoromethyl)benzo[d]oxazol-5-yl)methyl)(methyl)amino)cyclopentan-1-ol]	
< 200	< 0.2	< 200	CC(C)CNCc1cc(C(F)(F)F)c2oc(-c3cccc(-c4ccc(F)cc4-c4nncn4C)c3)nc2c1 [FX-2, N-((2-(4′-Fluoro-2′-(4-methyl-4H-1,2,4-triazol-3-yl)-[1,1′-biphenyl]-3-yl)-7-(trifluoromethyl)benzo[d]oxazol-5-yl)methyl)-2-methylpropan-1-amine]	
< 200	0.2 to 1	< 200	C[C@@H](c1cc(C(F)(F)F)c2oc(-c3cccc(C4(Cc5nncn5C)COC4)c3)nc2c1)N1CCC2(CC2)C1 [AAE-1, 5-[(1S)-1-{5-azaspiro[2.4]heptan-5-yl}ethyl]-2-(3-{3-[(4-methyl-1,2,4-triazol-3-yl)methyl]oxetan-3-yl}phenyl)-7-(trifluoromethyl)-1,3-benzoxazole]	
< 200	< 0.2	< 200	CN(Cc1cc(C(F)(F)F)c2[nH]c(-c3cccc(-c4ccc(F)cc4-c4nncn4C)c3)nc2c1)[C@@H]1CCC[C@@H]1O [ID-3, (1S,2R)-2-(((2-(4′-Fluoro-2′-(4-methyl-4H-1,2,4-triazol-3-yl)-[1,1′-biphenyl]-3-yl)-7-(trifluoromethyl)-1H-benzo[d]imidazol-5-yl)methyl)(methyl)amino)cyclopentan-1-ol]	
< 200	< 0.2	< 200	Cn1cnnc1-c1cc(Cl)ccc1-c1ccnc(-c2nc3cc(CN[C@@H]4CCC[C@@H]4O)cc(C(F)(F)F)c3o2)c1 [AER-8, (1S,2R)-2-(((2-(4-(4-Chloro-2-(4-methyl-4H-1,2,4-triazol-3-yl)phenyl)pyridin-2-yl)-7-(trifluoromethyl)benzo[d]oxazol-5-yl)methyl)amino)cyclopentan-1-ol]	
< 200	1 to 10	200 to 1000	Cn1cnnc1-c1cc(F)ccc1-c1cccc(-c2nc3cc(CN)cc(C(F)(F)F)c3o2)c1 [EB-1, (2-(4′-Fluoro-2′-(4-methyl-4H-1,2,4-triazol-3-yl)-[1,1′-biphenyl]-3-yl)-7-(trifluoromethyl)benzo[d]oxazol-5-yl)methanamine]	
< 200	< 0.2	< 200	Cc1cc(CNCC2CCC2)cc2nc(-c3cc(-c4ccc(F)cc4-c4nncn4C)cc(C4CC4)n3)oc12 [AFF-1, 1-Cyclobutyl-N-((2-(6-cyclopropyl-4-(4-fluoro-2-(4-methyl-4H-1,2,4-triazol-3-yl)phenyl)pyridin-2-yl)-7-methylbenzo[d]oxazol-5-yl)methyl)methanamine]	
